Data set [1] relates to C. jejuni (strain 81-176, ATCC BAA-2151). Briefly: Growth inhibition, solid plates (CFU). Format: cell-based, Campylobacter jejuni. Conditions: 0.5 mM metal salt in combination with 2 mM DMG.
Another data set relates to C. jejuni 81-176. Briefly: Growth inhibition, liquid 96-well checkerboard (OD600, MIC, MBC). Format: cell-based, Campylobacter jejuni. The note with it: for OD600: DMG 0 mM, 24 h. The protocol: Growth inhibition assays: liquid (96-well) plates experiments. This type of experiment can only be conducted with C. jejuni since the gas requirement for C. concisus (H2-enriched microaerobic) is not compatible with the use of 96-well plates. C. jejuni cells were grown as described above, harvested, and resuspended in sterile NaCl (8 g/L) to an OD600 of 0.1, corresponding approximately to 5×10^8 to 1×10^9 cells/mL. […] Wells were serially (2-fold) diluted in each direction (horizontal and vertical) to introduce all combinations. Wells with no DMG or metal compounds served as (positive) growth controls, and wells with no bacteria served as background (negative growth) controls. A typical protocol and loading plan are described in Table 7. The starting inoculum was at OD600 of 0.05, which corresponds approximately to 2.5×10^8 cells/mL to 5×10^8 cells/mL. After 24 hours incubation under microaerobic conditions at 37° C., OD600 was recorded using a 96 well-plate reader (Microtek). […] Resulting growth (or lack of growth) was examined after overnight culturing; the lowest concentration that inhibits 99.9% of the original culture was defined as MBC. MIC and MBC were determined based on tests (plates) done in triplicate.

Data set [2] concerns C. jejuni (strain NCTC 11168). Briefly: C. jejuni-chicken colonization experiment. Conditions: Experiment 1, ad libitum CuSO4 (0.2 mM), 9 days p.i. Format: in vivo, chickens. The protocol: Since chickens are natural hosts for C. jejuni, and chicken meat is one of the main sources of campylobacteriosis in humans, it was important to test the efficacy of DMG alone or in combination with copper in this animal model. Two independent trials were conducted, as described in FIG. 22. In both trials, the treatment was administered through ad libitum drinks, starting two to three days before C. jejuni inoculation (with strain NCTC 11168), and going through the end of each experiment. […] Nine days after inoculation with C. jejuni, chickens were euthanized, and their ceca were isolated for bacterial count. […] The treatment was administered two days before inoculation with C. jejuni, and chicken ceca were harvested eight days after inoculation.

For data set [3], the target named is T1, Aβ40 peptide (Homo sapiens, UniProt P05067). Briefly: Thioflavin T (ThT)-based Aβ40 aggregation assay. Format: biochemical. The note with it: for increase of average Aβ40 aggregation rate compared to no supplemental metal control: pH 7.4; for Relative Aβ40 aggregation rate (% control): DMG 0 μM; for Aβ40 peptide aggregation under all pHs tested: pH 6.5, 7.5 or 8.5, 25 mM Aβ40, CuSO4 25 mM, ZnSO4 10 mM or DMG 100 mM (so in the source). Details: purchased rPeptides, Watkinsville, Ga., USA kit #A-1180-1; host or cells: E. coli. The protocol: Amyloid Beta aggregation. […] This kit contained human recombinant Aβ40 peptide (>97% pure, as determined by manufacturer's HPLC) with the following sequence […] (SEQ ID NO:1), as provided by the manufacturer. […] The aggregation of Aβ40, was shown by the increase in fluorescence (lex=440 nm/lem=485 nm) over time, was followed for 60 min or 120 min, with reading every three or five min, using a Synergy MX reader (Biotek, Winooski, Vt.). A ThT-only background control (no Aβ40 peptide) was included in triplicate in all experiments and subtracted from all readings. The aggregation rate, defined as the increase in fluorescence per min (RFU/min), was calculated by using the formula [A(440,485) at T40min)−A(440,485) at T20min]/20.
Target sequence in this assay (P05067 672-711): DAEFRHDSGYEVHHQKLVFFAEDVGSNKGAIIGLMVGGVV

The conditions of data set [4]: mouse, in vivo.
Data set [5] deals with T1, Aβ40 peptide. Briefly: Isothermal titration calorimetry. It is filed as binding. Details: purchased rPeptides, Watkinsville, Ga., USA kit #A-1180-1; host or cells: E. coli; DS (entropy): unit not given here. Conditions: 20 μM Aβ40, 25° C. The text has this: Nickel binding to human recombinant Aβ40 peptide is confirmed by isothermal titration calorimetry. Isothermal titration calorimetry (ITC) has been already used to analyze copper or zinc binding to various Aβ peptides, including Ab40 (Talmard et al. Biochemistry 46, 13658-13666 (2007); Sacco et al. JBIC Journal of Biological Inorganic Chemistry 17, 531-541 (2012); Hatcher et al. The journal of physical chemistry B 112, 8160-8164 (2008)). In the current study, we used ITC to determine whether nickel can bind the Aβ40 peptide. The peptide (same used in ThT-based aggregation assays) was present in the sample cell at a concentration of 20 μM. Twenty injections of NiSO4 (1 mM solution, 5 μM increments in sample cell) were performed every 5 min under constant stirring (350 rpm) at 25° C., and the heat release was measured (FIG. 9). The heat release profile indicates Ni binding to the peptide (FIG. 9, top Panel).
Isothermal Titration Calorimetry. […] Briefly, 1 mg of lyophilized Aβ40 peptide (#A-1157-2, rPeptides) was resuspended with 1% NH4OH to a concentration of 250 μM, sonicated for 15-20 sec, before being diluted to a final concentration of 20 μM Aβ40 using ddH2O and TBS 10×, pH 7.4 (working buffer: NH4OH 0.2%, TBS 1×, pH 7.4 (“NTBS”)). […] All samples were degassed for 15 min at 25° C. before use. Titration was initiated using a program for 20 injections (2.38 μL each, every 5 min) with continuous stirring (350 rpm) at constant temperature (25° C.). ITC data were analyzed using NanoAnalyze 1.2 software (TA Instruments). Data obtained with the control experiment (Aβ40 peptide in sample cell, buffer in syringe) were subtracted from each experiment to account for any injection-related heat change.
Target sequence in this assay (P05067 672-711): as above
For orientation: In ITC the heat of successive injections is recorded.

The target in data set [6] is T1, Aβ40 peptide. Details: yields Aβ peptides of various lengths (38, 40 or 42 amino acids). The note with it: Talmard et al. 2007; read-out: Kd previously reported; cited from earlier work.
Target sequence in this assay (P05067 672-711 limits assumed): as the sequence (P05067 672-711) above
Data set [7] can be described thus: Acute oral LD50 (literature). Format: in vivo, mice.
The conditions of data set [8]: cited from earlier work.
The mark [9] stands for this setting: 100 mM metal (so in the source).
[10] abbreviates: experiment A, supplemental metal 10 μM.
Where [11] appears, read: experiment B, supplemental metal 100 μM.

Broadly, the MBC is the smallest concentration meeting the test's criterion for killing. Usually MIC stands for the lowest concentration found to suppress growth.

Each structure is given as a SMILES string. Where “and” joins values, the source holds several entries; their conditions need not be identical. Equal values may be shown once. Read-outs that look alike come from different tables or passages of the source.

With `[Cl-].[Cl-].[Co+2]` [CO^2+, CoCl2, reference compound], the “effect on C. jejuni growth” value in data set [1] is on record as “no noticeable effect”. In addition, the minimum bactericidal concentration (MBC) in the data set with C. jejuni 81-176 (metal with DMG 0 mM) is > 1020 µM; in the data set on C. jejuni 81-176 (metal with DMG 0.5 mM), > 1020 µM; in the data set on C. jejuni 81-176 (metal with DMG 1 mM), > 1020 µM; with C. jejuni 81-176 (metal with DMG 4 mM), 512 µM. Moreover, the minimal inhibitory concentration (MIC) in the data set with C. jejuni 81-176 (metal with DMG 0 mM) is > 1020 µM; in the data set with C. jejuni 81-176 (metal with DMG 0.5 mM) it was > 1020 µM; in the data set with C. jejuni 81-176 (metal with DMG 1 mM) it was > 1020 µM; in the data set with C. jejuni 81-176 (metal with DMG 4 mM), 256 µM.
Take `O=S(=O)([O-])[O-].[Cu+2]` [Cu, CuSO4, reference compound]: in [2], the “C. jejuni Average CFUs per g of cecum (x10^8)” value is 5.95 x10^8 CFUs per g of cecum. Further, the “Chickens Cj-free (n=)” value in [2] (total n=4) is 0. Further, the “Chickens Colonized (n=)” value in data set [2] (total n=4) is 4. Besides, the OD600 in the data set with C. jejuni 81-176 (CuSO4 2 uM) is recorded as 0.29; with C. jejuni 81-176 (CuSO4 4 uM), 0.23; in the data set with C. jejuni 81-176 (CuSO4 8 uM) it was 0.31; in the data set on C. jejuni 81-176 (CuSO4 16 uM), 0.38; in the data set with C. jejuni 81-176 (CuSO4 32 uM), 0.26; in the data set on C. jejuni 81-176 (CuSO4 64 uM) it was 0.27. For the same compound, the OD600 amounted to 0.23 with C. jejuni 81-176 (CuSO4 128 uM), 0.38 in the data set with C. jejuni 81-176 (CuSO4 256 uM), 0.28 with C. jejuni 81-176 (CuSO4 512 uM) and 0.43 in the data set with C. jejuni 81-176 (CuSO4 1024 uM). Moreover, the minimal bactericidal concentration (MBC) in the data set on C. jejuni 81-176 (metal with DMG 0 mM) and in the data set on C. jejuni 81-176 (metal with DMG 0.5 mM) was > 1020 µM each time. Besides, the minimal inhibitory concentration (MIC) is > 1020 µM with C. jejuni 81-176 (metal with DMG 0 mM) and 1020 µM with C. jejuni 81-176 (metal with DMG 0.5 mM). Also, the “increase of average Aβ40 aggregation rate compared to no supplemental metal control” value (“increase … to no supplemental metal control” below) at Aβ40 peptide [3] (10 mM metal (so in the source)) and at Aβ40 peptide [3] (setting [9]) was “no significant effect” in each case. In addition, the “Relative Aβ40 aggregation rate (% control)” value was determined as 103 ± 19 % control on Aβ40 peptide [3] (setting [10]) and 77 ± 2 % control on Aβ40 peptide [3] (experiment C, supplemental metal 100 μM). Further, the “Aβ40 peptide aggregation under all pHs tested” value at Aβ40 peptide [3] is given as “negligible”.
`CC(=NO)C(C)=NO` [D-1885, Dimethylglyoxime]: the “condition of animals given chelator alone” value in data set [4] is recorded as “appeared ill”.
For the compound `O=S(=O)([O-])[O-].[Mn+2]` [MnSO4], in data set [1], the “effect on C. jejuni growth” value was “no noticeable effect”.
For the compound `O=S(=O)([O-])[O-].[Ni+2]` [Ni, NiSO4, reference compound], the “DH (enthalpy)” value at Aβ40 peptide [5] is -1.2 kcal/mol. Besides, the “DS (entropy)” value on Aβ40 peptide [5] is recorded as 86. Further, the apparent stoichiometry on Aβ40 peptide [5] is on record as 0.7 mole Ni(II) per mole of Aβ40 p. Also, the Kd on Aβ40 peptide [5] (pH 7.4, read-out: apparent Kd) was 4.2 µM and ~4.2 µM. In addition, in [1], the “effect on C. jejuni growth” value is on record as “no noticeable effect”. Besides, the minimum bactericidal concentration (MBC) in the data set on C. jejuni 81-176 (metal with DMG 0 mM), in the data set with C. jejuni 81-176 (metal with DMG 0.5 mM), in the data set on C. jejuni 81-176 (metal with DMG 1 mM), with C. jejuni 81-176 (metal with DMG 2 mM) and in the data set with C. jejuni 81-176 (metal with DMG 4 mM) was > 1020 µM each time. Also, the minimum inhibitory concentration (MIC) in the data set with C. jejuni 81-176 (metal with DMG 0 mM), with C. jejuni 81-176 (metal with DMG 0.5 mM), in the data set on C. jejuni 81-176 (metal with DMG 1 mM), with C. jejuni 81-176 (metal with DMG 2 mM) and with C. jejuni 81-176 (metal with DMG 4 mM) was > 1020 µM throughout. Besides, the “increase … to no supplemental metal control” value is on record as 2.5 fold at Aβ40 peptide [3] (10 mM metal (so in the source)) and 5.7 fold at Aβ40 peptide [3] (setting [9]). The “Ni(II)-induced Aβ40 aggregation at pH 6.5, compared to pH 7.5” value at Aβ40 peptide [3] (NiSO4 25 mM (so in the source)) is “faster”. At Aβ40 peptide [3] (NiSO4 25 mM (so in the source)), the “Ni(II)-induced Aβ40 aggregation at pH 8.5” value is reported as “absent”. Further, the “Relative Aβ40 aggregation rate (% control)” value on Aβ40 peptide [3] (setting [10]) is given as 252 ± 8 % control; at Aβ40 peptide [3] (setting [11]), 567 ± 61 % control.
For `O=S(=O)([O-])[O-].[Zn+2]` [Zn, ZnSO4, reference compound], in [1], the “effect on C. jejuni growth” value was “no noticeable effect”. Moreover, the MBC with C. jejuni 81-176 (metal with DMG 0 mM), with C. jejuni 81-176 (metal with DMG 0.5 mM), in the data set on C. jejuni 81-176 (metal with DMG 1 mM), in the data set with C. jejuni 81-176 (metal with DMG 2 mM) and with C. jejuni 81-176 (metal with DMG 4 mM) was > 1024 µM throughout. The MIC in the data set on C. jejuni 81-176 (metal with DMG 0 mM), with C. jejuni 81-176 (metal with DMG 0.5 mM), in the data set with C. jejuni 81-176 (metal with DMG 1 mM), in the data set with C. jejuni 81-176 (metal with DMG 2 mM) and in the data set on C. jejuni 81-176 (metal with DMG 4 mM) was 512 µM each time. Moreover, the Kd on Aβ40 peptide [6] is 7 ± 3 µM. The “increase … to no supplemental metal control” value at Aβ40 peptide [3] (10 mM metal (so in the source)) was found to be 5 fold; on Aβ40 peptide [3] (setting [9]), 14 fold. The “Relative Aβ40 aggregation rate (% control)” value is 505 ± 29 % control on Aβ40 peptide [3] (setting [10]) and 1423 ± 258 % control on Aβ40 peptide [3] (setting [11]). Besides, at Aβ40 peptide [3], the “Aβ40 peptide aggregation under all pHs tested” value is “fastest and sharpest increase in fluorescence”.
With `CCN(CC)C(=S)SSC(=S)N(CC)CC` [disulfiram], the “LD50 amount per mouse” value in [7] is on record as “approximately 20 μg”. Also, the “acute oral LD50” value in data set [8] is listed as 1.013 mg/kg.
